Measured values reported in publication PMC9960821, “Evaluation of Rhenium and Technetium-99m Complexes Bearing Quinazoline Derivatives as Potential EGFR Agents” (Molecules, 2023).
Read-outs that look alike come from different tables or passages of the source. One block for each compound: values may come before it.

Legend:
A431 cells = test: In vitro growth inhibition (MTT assay) in A431 cells; format: cell-based, human; settings: read-out: Inhibition of cell growth IC50
Method: This assay measures the amount of MTT reduction by mitochondrial dehydrogenase and assumes that cell viability (corresponding to the reductive activity) is proportional to the production of purple formazan that is measured spectrophotometrically.
(§1) Cell line. The in vitro biological studies were established using the human epidermoid vulvar carcinoma A431 cell line, which overexpresses EGFR. Cells were available in our laboratory from previous studies. Cells were maintained in high glucose D-MEM medium with L-glutamine (PAA Laboratories GmbH, Pasching, Austria) and supplemented with 10% fetal bovine serum (PAA Laboratories GmbH) and penicillin/streptomycin (PAA Laboratories GmbH) 100 UI/100 μg per mL, in 5% CO2 incubator at 37 °C.
The in vitro cytotoxicity of the synthesized ligands and their rhenium complexes was determined by the MTT method. The A431 cells were seeded in 96-well plates at a density of 4000 cells per 100 μL per well and incubated for 24 h so that they were attached to the wells. After 24 h, the studied derivatives were dissolved in DMSO ([…]) and further diluted in D-MEM in various concentrations. […] The six concentrations of each derivative and control existed quadrupled into the experiment. The derivatives and the cells were incubated for 72 h. After three days, the medium was removed, and the cells were incubated […] in the presence of MTT (1 mg/mL 3-[4,5-dimethylthiazol-2-yl]-2,5-diphenyltetrazolium bromide, Sigma, Saint Louis, MO, USA) in RPMI (PAA Laboratories GmbH, Pasching, Austria) without phenol red for 2 h at 37 °C. The MTT solution was removed, and 2-propanol was added to each well to stop the cleavage of the tetrazolium ring by dehydrogenase enzymes which convert MTT to an insoluble purple formazan in living cells. The plates were then agitated at room temperature for about 15–20 min, and the level of the colored formazan derivative was determined by measuring optical density (OD) on an ELISA reader (540/620 nm). […] Cell proliferation assay was performed three times for each compound.

EGFR = target: T1, EGFR (Homo sapiens, UniProt P00533); test: Inhibition of EGFR phosphorylation in intact A431 cells (immunoblotting); format: cell-based; settings: 2 h compound then EGF 20 ng/mL 5 min, Western blot
T1 construct: by immunoblotting in intact A431 cells that overexpress EGFR; endogenous in cells; host or cells: A431 (human epidermoid vulvar carcinoma)
T1 sequence (P00533 25-1210): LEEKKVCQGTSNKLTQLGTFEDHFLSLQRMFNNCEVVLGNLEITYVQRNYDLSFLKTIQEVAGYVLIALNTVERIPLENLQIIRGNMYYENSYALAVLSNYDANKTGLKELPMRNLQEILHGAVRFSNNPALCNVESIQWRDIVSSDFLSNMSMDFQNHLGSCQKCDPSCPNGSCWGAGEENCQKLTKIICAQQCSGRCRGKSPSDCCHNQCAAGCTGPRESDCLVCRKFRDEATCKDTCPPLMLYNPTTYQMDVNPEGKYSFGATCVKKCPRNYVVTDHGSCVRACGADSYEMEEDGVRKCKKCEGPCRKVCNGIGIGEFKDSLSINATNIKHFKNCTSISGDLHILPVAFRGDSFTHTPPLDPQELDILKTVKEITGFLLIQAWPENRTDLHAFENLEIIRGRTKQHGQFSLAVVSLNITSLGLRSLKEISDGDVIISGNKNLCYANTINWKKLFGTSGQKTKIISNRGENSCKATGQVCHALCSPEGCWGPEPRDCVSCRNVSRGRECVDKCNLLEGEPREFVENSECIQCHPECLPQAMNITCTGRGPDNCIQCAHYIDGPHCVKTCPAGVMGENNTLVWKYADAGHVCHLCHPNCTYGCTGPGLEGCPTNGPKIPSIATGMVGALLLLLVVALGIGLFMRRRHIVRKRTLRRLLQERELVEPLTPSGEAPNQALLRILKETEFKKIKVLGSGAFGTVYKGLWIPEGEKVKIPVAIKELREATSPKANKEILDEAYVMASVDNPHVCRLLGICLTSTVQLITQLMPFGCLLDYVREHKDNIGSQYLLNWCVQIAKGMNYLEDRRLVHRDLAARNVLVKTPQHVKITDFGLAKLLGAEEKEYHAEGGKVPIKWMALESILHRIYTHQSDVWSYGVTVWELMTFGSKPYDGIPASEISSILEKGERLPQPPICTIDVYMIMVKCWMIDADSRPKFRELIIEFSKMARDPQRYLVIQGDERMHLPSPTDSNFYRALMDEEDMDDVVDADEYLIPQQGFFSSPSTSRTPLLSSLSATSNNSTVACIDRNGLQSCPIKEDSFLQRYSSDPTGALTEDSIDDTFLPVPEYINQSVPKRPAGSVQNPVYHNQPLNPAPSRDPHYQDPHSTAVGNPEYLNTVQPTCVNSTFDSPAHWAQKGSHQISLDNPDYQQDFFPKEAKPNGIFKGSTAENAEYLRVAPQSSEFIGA
Method: Complex 5a was evaluated for its potency to inhibit EGFR phosphorylation in various concentrations by immunoblotting in intact A431 cells that overexpress EGFR (Figure 3). In addition, the percentage of EGFR phosphorylation was calculated, and a dose-response curve was performed (Figure 4).
as §1
The inhibition of EGFR phosphorylation was studied as described in the literature. A431 cells (5 × 10^5 cells/well) were seeded in 6-well plates and incubated for 24 h. Then, the medium was replaced with fresh medium without fetal bovine serum. […] Protein band quantification was performed using Image-J software, and the percentage of EGFR phosphorylation inhibition was calculated using GraphPad Prism 9.0 software.

[1] = Stability of 99mTc complexes in reaction mixture and after isolation in PBS (RP-HPLC); format: physicochemical
Method: (§2) The stability of complexes 5b and 7b was studied in their reaction mixture and after isolation by HPLC for up to 24 h.
Stability of ^99mTc complexes in the reaction mixture: Samples of the ^99mTc complexes’ reaction mixture were stored at room temperature for up to 24 h. At 1, 6, and 24 h intervals, 100 μL of each sample was removed and analyzed by RP-HPLC.
Stability of isolated ^99mTc complexes: Purification and isolation of 5b and 7b complexes were performed by injection of the reaction mixture into RP-HPLC and isolation of the eluted compounds’ peaks, corresponding to the elution time of each complex. Followingly, 0.1 M PBS buffer solution (900 µL) was added to a vial containing 100 µL (50–120 MBq) of the isolated technetium-99m complex. The sample was incubated at 37 °C for up to 24 h and analyzed by RP-HPLC at 1, 6, and 24 h intervals.

[2] = Cysteine and histidine challenge of 99mTc complexes (RP-HPLC); format: physicochemical
Method: as §2
Cysteine and histidine challenge: Histidine (100 µL, 1 × 10^−2 M) or cysteine (100 µL, 1 × 10^−2 M) solution in 0.1 M PBS was mixed with 100 µL (50–120 MBq) of the RP-HPLC isolated ^99mTc complexes in 0.1 M PBS (800 µL). The mixtures were incubated at 37 °C for up to 24 h and analyzed by RP-HPLC at 1, 6, and 24 h intervals.

[3] = Biodistribution in healthy Swiss Albino mice after intravenous injection; format: in vivo; settings: i.v.
Method: The pharmacokinetic profile of complexes 5b and 7b was evaluated in Swiss Albino healthy male mice at 5, 60, and 240 min post intravenous injection. Table 4 presents the results of the biodistribution studies expressed as % Injected Dose (ID)/g ± Standard Deviation (±SD). […] The high lipophilicity characterizing both complexes justifies the rapid hepatobiliary excretion, given the decreasing activity in the liver and the increasing amount of radioactivity in the intestines. Complex 5b presented faster clearance and elimination in the intestines at 60 min p.i. 34.05% of the radioactivity excreted, compared to 29.89% at 240 min p.i. of complex 7b. Radioactivity in the urine remained low in general, however, the lower logD7.4 value of complex 7b explains the relatively higher activity in the urines (7.88 ± 0.71%) as it is slightly more hydrophilic than 5b. Moreover, the low uptake in the brain indicates almost no blood-brain barrier penetration, although the complexes have favorable physicochemical characteristics.
All the biodistribution experiments were carried out in compliance with the national laws and European protocols (2010/63/EU) related to the conduct of animal experimentation. Nine healthy Swiss Albino mice (male, 30 ± 3 g), divided into three groups of three, were injected with the HPLC-purified 5b or 7b complex in saline with 10% EtOH (0.1 mL, ~75 kBq) through the tail vein. For each group, the animals were sacrificed by cardiectomy under slight ether anesthesia 5, 60, and 240 min after the injection. The organs of interest were excised, weighed, and counted in an automatic gamma counter. The bladder and excreted urine were not weighed. The stomach and intestines were not emptied of food contents prior to radioactivity measurements. The percentage of injected dose per organ (%ID/organ) was calculated by comparison of sample radioactivity to standard solutions containing 10% of the injected dose. The calculation for blood and muscle was based on measured activity, sample weight, and body composition data (considering that blood and muscle comprise 7 and 43% of body weight). The percentage of injected dose per gram (%ID/g) was calculated by dividing the %ID/organ by the weight of the organ or tissue.

[4] = Lipophilicity, shake-flask distribution coefficient; format: physicochemical; settings: n-octanol/0.1 M phosphate buffer pH 7.4
Method: The pharmacokinetic profile of the studied compounds could be affected by their lipophilicity, expressed as the logarithm of the distribution coefficient (log Do/w). The lipophilicity of complexes 5b and 7b was determined in physiological conditions (n-octanol/0.1 M phosphate buffer pH 7.4). […] The presence of the pyridine ring in the chemical structure of complex […] increases the log D7.4 value, as expected.
The distribution coefficient of the 5b and 7b complexes was determined with the shake-flask method. The RP-HPLC isolated ^99mTc complexes (20 μL, ~75 kBq) were mixed with 2 mL of 1-octanol and 2 mL of phosphate buffer solution (PBS, 0.1 M, pH 7.4) in a centrifuge tube. The mixture was vortexed at room temperature for 2 min and centrifuged at 5000 rpm for 10 min. The radioactivity of each phase (200 μL) was counted in a gamma counter. The distribution coefficient was calculated by dividing the cpm/mL in the 1-octanol phase by those in the buffer, and the results were expressed as logD7.4. Each experiment was run in triplicate.

[5] = Homo sapiens, A-431, A431 cancer cell line, MTT, 72 h, mean ± SD of three experiments
[6] = A431 cancer cell line, MTT, 72 h, mean ± SD of three experiments

Structure (SMILES): Nc1ccc2ncnc(Nc3cccc(Br)c3)c2c1 [Compound 1, 6-amino-4-[(3-bromophenyl)amino] quinazoline, reference compound]
- IC50 (A431 cells; Homo sapiens, A-431, 72 h): 2.3 ± 0.3 µM

Structure (SMILES): CCOC(=O)CN(CCCCCC(=O)Nc1ccc2ncnc(Nc3cccc(Br)c3)c2c1)Cc1ccccn1 [Compound 4, 6-(pyridine-2-methyl N, N, acetic ethyl ester-hexanoyl)-4-[(3-bromophenyl)amino]-quinazoline]
- IC50 (A431 cells; [5]): 25.6 ± 3.87 µM

Structure (SMILES): O=C([O-])CN(CCCCCC(=O)Nc1ccc2ncnc(Nc3cccc(Br)c3)c2c1)Cc1ccccn1.[C-]#[O+].[C-]#[O+].[C-]#[O+].[Re+] [Compound 5a, fac-[Re(NNO)(CO)3]]
- IC50 (EGFR): 0.0261 µM
- IC50 (A431 cells; [6]): 8.85 ± 2.62 µM

Structure (SMILES): NC(CSCCCCCC(=O)Nc1ccc2ncnc(Nc3cccc(Br)c3)c2c1)C(=O)O (stereo not shown) [Compound 6, 6-(cysteine-N-hexanoyl)-4-[(3-bromophenyl)amino]-quinazoline]
- IC50 (A431 cells; [5]): 4.12 ± 0.92 µM

The next lines start with the values.

- IC50 (A431 cells; [6]): 29.6 ± 3.63 µM
Structure (SMILES): NC(CSCCCCCC(=O)Nc1ccc2ncnc(Nc3cccc(Br)c3)c2c1)C(=O)[O-].[C-]#[O+].[C-]#[O+].[C-]#[O+].[Re+] (stereo not shown) [Compound 7a, fac-[Re(SNO)(CO)3]]

- %RCP in PBS for 24 h ([1]; 0.1 M PBS, 37 °C, 24 h): 99 ± 1%
- Stability in reaction mixture and after isolation by HPLC ([1]; up to 24 h, room temperature or 37 °C): No decomposition
- Stability after incubation with excess of histidine and cysteine ([2]; 24 h, molar ratio 1/1000, HPLC): > 95%
- %RCP in Cysteine for 24 h ([2]; excess cysteine, 37 °C): 95 ± 1%
- %RCP in Histidine for 24 h ([2]; excess histidine, 37 °C): 95 ± 2%
- In vivo stability (low spleen and stomach radioactivity; no oxidation to pertechnetate/TcO2) [3]: stable in vivo
- Blood %Injected Dose/g ([3]; 5 min): 1.06 ± 0.29 %Injected Dose/g
- Brain %Injected Dose/g ([3]; 5 min): 0.06 ± 0.02 %Injected Dose/g
- Heart %Injected Dose/g ([3]; 5 min): 0.97 ± 0.29 %Injected Dose/g
- Intestines %Injected Dose/g ([3]; 5 min): 10.62 ± 1.17 %Injected Dose/g
- Kidneys %Injected Dose/g ([3]; 5 min): 13.04 ± 2.34 %Injected Dose/g
- Liver %Injected Dose/g ([3]; 5 min): 23.33 ± 3.63 %Injected Dose/g
- Lungs %Injected Dose/g ([3]; 5 min): 1.19 ± 0.22 %Injected Dose/g
- Muscle %Injected Dose/g ([3]; 5 min): 0.29 ± 0.11 %Injected Dose/g
- Pancreas %Injected Dose/g ([3]; 5 min): 1.10 ± 0.11 %Injected Dose/g
- Spleen %Injected Dose/g ([3]; 5 min): 0.92 ± 0.32 %Injected Dose/g
- Stomach %Injected Dose/g ([3]; 5 min): 1.04 ± 0.10 %Injected Dose/g
- Urine % ID ([3]; 5 min): 0.08 ± 0.06 % ID
- Blood %Injected Dose/g ([3]; 60 min): 0.30 ± 0.09 %Injected Dose/g
- Brain %Injected Dose/g ([3]; 60 min): 0.02 ± 0.01 %Injected Dose/g
- Heart %Injected Dose/g ([3]; 60 min): 0.18 ± 0.03 %Injected Dose/g
- Intestines %Injected Dose/g ([3]; 60 min): 26.81 ± 1.61 %Injected Dose/g
- Kidneys %Injected Dose/g ([3]; 60 min): 1.94 ± 0.28 %Injected Dose/g
- Liver %Injected Dose/g ([3]; 60 min): 4.88 ± 0.47 %Injected Dose/g
- Lungs %Injected Dose/g ([3]; 60 min): 0.26 ± 0.04 %Injected Dose/g
- Muscle %Injected Dose/g ([3]; 60 min): 0.13 ± 0.12 %Injected Dose/g
- Pancreas %Injected Dose/g ([3]; 60 min): 0.24 ± 0.05 %Injected Dose/g
- Spleen %Injected Dose/g ([3]; 60 min): 0.11 ± 0.02 %Injected Dose/g
- Stomach %Injected Dose/g ([3]; 60 min): 0.97 ± 0.22 %Injected Dose/g
- Urine % ID ([3]; 60 min): 5.83 ± 0.02 % ID
- Blood %Injected Dose/g ([3]; 240 min): 0.18 ± 0.04 %Injected Dose/g
- Brain %Injected Dose/g ([3]; 240 min): 0.07 ± 0.06 %Injected Dose/g
- Heart %Injected Dose/g ([3]; 240 min): 0.12 ± 0.00 %Injected Dose/g
- Intestines %Injected Dose/g ([3]; 240 min): 29.89 ± 2.41 %Injected Dose/g
- Kidneys %Injected Dose/g ([3]; 240 min): 1.12 ± 0.03 %Injected Dose/g
- Liver %Injected Dose/g ([3]; 240 min): 4.46 ± 0.16 %Injected Dose/g
- Lungs %Injected Dose/g ([3]; 240 min): 0.25 ± 0.08 %Injected Dose/g
- Muscle %Injected Dose/g ([3]; 240 min): 0.03 ± 0.00 %Injected Dose/g
- Pancreas %Injected Dose/g ([3]; 240 min): 0.12 ± 0.02 %Injected Dose/g
- Spleen %Injected Dose/g ([3]; 240 min): 0.09 ± 0.02 %Injected Dose/g
- Stomach %Injected Dose/g ([3]; 240 min): 0.96 ± 0.06 %Injected Dose/g
- Urine % ID ([3]; 240 min): 7.88 ± 0.71 % ID
- log D7.4 [4]: 2.87 ± 0.32
Structure (SMILES): NC(CSCCCCCC(=O)Nc1ccc2ncnc(Nc3cccc(Br)c3)c2c1)C(=O)[O-].[99Tc+].[C-]#[O+].[C-]#[O+].[C-]#[O+] (stereo not shown) [Compound 7b]
